Toxic doses and inconclusive results are not listed.
Test system: CD2F1 mice, L1210 leukemia ip, survival T/C
Assay: NCI In Vivo Anticancer Drug Screen. Data for tumor model L1210 Leukemia (intraperitoneal) in CD2F1 (CDF1) mice
Settings: higher = longer survival
Summary of the method: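 Compound-dosed mice with transplantable tumor versus matched vehicle controls; endpoint ratio T/C reported.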

[1] = endpoint: mean survival time, dose: 100.0 mg/kg/injection, schedule: Q01DX001 (ip), vehicle: saline with Tween-80
[2] = endpoint: mean survival time, dose: 200.0 mg/kg/injection, schedule: Q01DX001 (ip), vehicle: saline with Tween-80
[3] = endpoint: mean survival time, dose: 100.0 mg/kg/injection, schedule: Q01DX001 (ip), vehicle: saline
[4] = endpoint: mean survival time, dose: 100.0 mg/kg/injection, schedule: Q04DX003 (ip), vehicle: saline with Tween-80
[5] = endpoint: mean survival time, dose: 200.0 mg/kg/injection, schedule: Q04DX003 (ip), vehicle: saline with Tween-80
[6] = endpoint: mean survival time, dose: 400.0 mg/kg/injection, schedule: Q04DX003 (ip), vehicle: saline with Tween-80
[7] = endpoint: mean survival time, dose: 100.0 mg/kg/injection, schedule: Q04DX003 (ip), vehicle: saline
[8] = endpoint: mean survival time, dose: 200.0 mg/kg/injection, schedule: Q04DX003 (ip), vehicle: saline
[9] = endpoint: mean survival time, dose: 400.0 mg/kg/injection, schedule: Q04DX003 (ip), vehicle: saline
[10] = endpoint: mean survival time, dose: 100.0 mg/kg/injection, schedule: Q01DX009 (ip), vehicle: saline with Tween-80
[11] = endpoint: mean survival time, dose: 200.0 mg/kg/injection, schedule: Q01DX009 (ip), vehicle: saline with Tween-80
[12] = endpoint: mean survival time, dose: 400.0 mg/kg/injection, schedule: Q01DX001 (ip), vehicle: saline
[13] = endpoint: mean survival time, dose: 400.0 mg/kg/injection, schedule: Q01DX009 (ip), vehicle: saline with Tween-80
[14] = endpoint: mean survival time, dose: 25.0 mg/kg/injection, schedule: Q01DX009 (ip), vehicle: saline
[15] = endpoint: mean survival time, dose: 100.0 mg/kg/injection, schedule: Q01DX009 (ip), vehicle: saline

Structure (SMILES): CC(=O)c1c(C(=O)O)c(=O)oc2cc(O)ccc12
- T/C (endpoint: mean survival time, dose: 75.0 mg/kg/injection, schedule: Q01DX001 (ip), vehicle: saline): 98 % of control
- T/C (endpoint: mean survival time, dose: 150.0 mg/kg/injection, schedule: Q01DX001 (ip), vehicle: saline): 98 % of control
- T/C (endpoint: mean survival time, dose: 300.0 mg/kg/injection, schedule: Q01DX001 (ip), vehicle: saline): 98 % of control

Structure (SMILES): O=C(CCCN1CCC2(CC1)CC(=O)N(N1CCCC1)C2=O)c1ccc(F)cc1
- T/C [1]: 108 % of control
- T/C [2]: 116 % of control
- T/C (endpoint: mean survival time, dose: 400.0 mg/kg/injection, schedule: Q01DX001 (ip), vehicle: saline with Tween-80): 116 % of control

Structure (SMILES): C/C([O-])=C/[S+](C)(=O)N(C)C (stereo not given)
- T/C (endpoint: mean survival time, dose: 25.0 mg/kg/injection, schedule: Q01DX001 (ip), vehicle: saline): 103 % of control
- T/C (endpoint: mean survival time, dose: 50.0 mg/kg/injection, schedule: Q01DX001 (ip), vehicle: saline): 109 % of control
- T/C [3]: 96 % of control

Structure (SMILES): O=C(NC1CCCCC1)NC1CCCCC1
- T/C [4]: 100 % of control
- T/C [5]: 98 % of control
- T/C [6]: 93 % of control

Structure (SMILES): CCOC(=O)c1cc2c3n(c1=O)CCCC3C(c1ccc(Cl)c(Cl)c1)OC2=O (stereo not given)
- T/C [7]: 98 % of control
- T/C [8]: 101 % of control
- T/C [9]: 104 % of control

Structure (SMILES): c1ccc2c(c1)CC1Sc3ccccc3N=C21 (stereo not given)
- T/C (endpoint: mean survival time, dose: 50.0 mg/kg/injection, schedule: Q01DX009 (ip), vehicle: saline with Tween-80): 91 % of control
- T/C [10]: 91 % of control
- T/C [11]: 94 % of control

Structure (SMILES): NS(=O)(=O)c1ccc(NC(=O)/C=C/C(=O)O)cc1
- T/C [7]: 101 % of control
- T/C [8]: 97 % of control
- T/C [9]: 97 % of control

Structure (SMILES): C=CCCCCC/C=C/CCCCCC
- T/C [3]: 96 % of control
- T/C [7]: 108 % of control
- T/C (endpoint: mean survival time, dose: 200.0 mg/kg/injection, schedule: Q01DX001 (ip), vehicle: saline): 98 % of control
- T/C [8]: 103 % of control
- T/C [12]: 104 % of control
- T/C [9]: 106 % of control

Structure (SMILES): OC1CC2C3C4C1C1C2C3C41 (stereo not given)
- T/C [10]: 104 % of control
- T/C [4]: 107 % of control
- T/C [11]: 95 % of control
- T/C [5]: 98 % of control
- T/C [13]: 95 % of control
- T/C [6]: 97 % of control

Structure (SMILES): O=C(N/N=C/c1ccc([N+](=O)[O-])cc1[N+](=O)[O-])c1ccncc1
- T/C (endpoint: mean survival time, dose: 12.5 mg/kg/injection, schedule: Q01DX009 (ip), vehicle: other): 95 % of control
- T/C (endpoint: mean survival time, dose: 25.0 mg/kg/injection, schedule: Q01DX009 (ip), vehicle: other): 91 % of control
- T/C (endpoint: mean survival time, dose: 50.0 mg/kg/injection, schedule: Q01DX009 (ip), vehicle: other): 91 % of control
- T/C (endpoint: mean survival time, dose: 100.0 mg/kg/injection, schedule: Q01DX009 (ip), vehicle: other): 89 % of control
- T/C (endpoint: mean survival time, dose: 200.0 mg/kg/injection, schedule: Q01DX009 (ip), vehicle: other): 93 % of control

Structure (SMILES): O=C(O)c1cccc(Cl)n1
- T/C [10]: 97 % of control
- T/C [11]: 97 % of control
- T/C [13]: 88 % of control

Structure (SMILES): CN1NC=Nc2c1[nH]cnc2=S
- T/C (endpoint: mean survival time, dose: 75.0 mg/kg/injection, schedule: Q01DX001 (ip), vehicle: other): 89 % of control
- T/C (endpoint: mean survival time, dose: 150.0 mg/kg/injection, schedule: Q01DX001 (ip), vehicle: other): 96 % of control

Structure (SMILES): CC1CN=C(c2ccc(Br)cc2)O1 (stereo not given)
- T/C [7]: 103 % of control
- T/C [8]: 96 % of control
- T/C [9]: 103 % of control

Structure (SMILES): CN(Cc1ccccc1)/N=N/c1nc[nH]c1C(N)=O
- T/C (endpoint: mean survival time, dose: 4.0 mg/kg/injection, schedule: Q01DX009 (ip), vehicle: Klucel (hydroxypropylcellulose) (HPC)): 98 % of control
- T/C (endpoint: mean survival time, dose: 8.0 mg/kg/injection, schedule: Q01DX009 (ip), vehicle: Klucel (hydroxypropylcellulose) (HPC)): 98 % of control
- T/C (endpoint: mean survival time, dose: 16.1 mg/kg/injection, schedule: Q01DX009 (ip), vehicle: Klucel (hydroxypropylcellulose) (HPC)): 102 % of control
- T/C (endpoint: mean survival time, dose: 32.2 mg/kg/injection, schedule: Q01DX009 (ip), vehicle: Klucel (hydroxypropylcellulose) (HPC)): 106 % of control
- T/C (endpoint: mean survival time, dose: 129.0 mg/kg/injection, schedule: Q01DX009 (ip), vehicle: Klucel (hydroxypropylcellulose) (HPC)): 95 % of control
- T/C (endpoint: mean survival time, dose: 258.0 mg/kg/injection, schedule: Q01DX009 (ip), vehicle: Klucel (hydroxypropylcellulose) (HPC)): 70 % of control
- T/C (endpoint: median survival time, dose: 8.0 mg/kg/injection, schedule: Q03HX016 (ip), vehicle: saline with Tween-80): 106 % of control
- T/C (endpoint: median survival time, dose: 8.0 mg/kg/injection, schedule: Q03HX024 (ip), vehicle: saline with Tween-80): 115 % of control
- T/C (endpoint: median survival time, dose: 16.0 mg/kg/injection, schedule: Q03HX016 (ip), vehicle: saline with Tween-80): 112 % of control
- T/C (endpoint: median survival time, dose: 16.0 mg/kg/injection, schedule: Q03HX024 (ip), vehicle: saline with Tween-80): 124 % of control
- T/C (endpoint: median survival time, dose: 32.0 mg/kg/injection, schedule: Q03HX016 (ip), vehicle: saline with Tween-80): 123 % of control
- T/C (endpoint: median survival time, dose: 64.0 mg/kg/injection, schedule: Q04DX003 (ip), vehicle: saline with Tween-80): 116 % of control
- T/C (endpoint: median survival time, dose: 64.0 mg/kg/injection, schedule: Q08DX002 (ip), vehicle: saline with Tween-80): 105 % of control
- T/C (endpoint: median survival time, dose: 128.0 mg/kg/injection, schedule: Q04DX003 (ip), vehicle: saline with Tween-80): 123 % of control
- T/C (endpoint: median survival time, dose: 128.0 mg/kg/injection, schedule: Q08DX002 (ip), vehicle: saline with Tween-80): 112 % of control
- T/C (endpoint: median survival time, dose: 256.0 mg/kg/injection, schedule: Q01DX009 (ip), vehicle: saline with Tween-80): 120 % of control
- T/C (endpoint: median survival time, dose: 256.0 mg/kg/injection, schedule: Q08DX002 (ip), vehicle: saline with Tween-80): 112 % of control
- T/C (endpoint: median survival time, dose: 512.0 mg/kg/injection, schedule: Q08DX002 (ip), vehicle: saline with Tween-80): 156 % of control

Structure (SMILES): CCCCCCCCC1SC1CCCCCCCC(=O)OCCOCCOCC (stereo not given)
- T/C (endpoint: mean survival time, dose: 100.0 mg/kg/injection, schedule: Q04DX003 (ip), vehicle: Klucel (hydroxypropylcellulose) (HPC)): 104 % of control
- T/C (endpoint: mean survival time, dose: 200.0 mg/kg/injection, schedule: Q04DX003 (ip), vehicle: Klucel (hydroxypropylcellulose) (HPC)): 104 % of control
- T/C (endpoint: mean survival time, dose: 400.0 mg/kg/injection, schedule: Q04DX003 (ip), vehicle: Klucel (hydroxypropylcellulose) (HPC)): 102 % of control

Structure (SMILES): CC(C)=CCC/C(C)=C/CN
- T/C [14]: 98 % of control
- T/C [7]: 86 % of control

Structure (SMILES): CC[S-].CC[S-].[Ni+2]
- T/C (endpoint: mean survival time, dose: 5.0 mg/kg/injection, schedule: Q01DX001 (ip), vehicle: saline): 103 % of control
- T/C (endpoint: mean survival time, dose: 10.0 mg/kg/injection, schedule: Q01DX001 (ip), vehicle: saline): 103 % of control
- T/C (endpoint: mean survival time, dose: 20.0 mg/kg/injection, schedule: Q01DX001 (ip), vehicle: saline): 103 % of control

Structure (SMILES): OCCN=Cc1ccccc1
- T/C [14]: 95 % of control
- T/C (endpoint: mean survival time, dose: 50.0 mg/kg/injection, schedule: Q01DX009 (ip), vehicle: saline): 92 % of control
- T/C [15]: 97 % of control
- T/C [4]: 106 % of control

Structure (SMILES): CCN(CC)CC(=O)Nc1cccc2c1C(=O)c1c(c(O)c3ccccc3c1O)C2=O
- T/C (endpoint: mean survival time, dose: 6.0 mg/kg/injection, schedule: Q04DX003 (ip), vehicle: saline with Tween-80): 94 % of control
- T/C (endpoint: mean survival time, dose: 12.0 mg/kg/injection, schedule: Q04DX003 (ip), vehicle: saline with Tween-80): 100 % of control
- T/C (endpoint: mean survival time, dose: 24.0 mg/kg/injection, schedule: Q04DX003 (ip), vehicle: saline with Tween-80): 96 % of control
- T/C (endpoint: mean survival time, dose: 48.0 mg/kg/injection, schedule: Q04DX003 (ip), vehicle: saline with Tween-80): 98 % of control

Structure (SMILES): CCOC(=O)Nc1cc(NCC(=O)CCc2ccccc2)c([N+](=O)[O-])c(N)n1
- T/C (endpoint: mean survival time, dose: 100.0 mg/kg/injection, schedule: Q01DX001 (ip), vehicle: Klucel (hydroxypropylcellulose) (HPC)): 93 % of control
- T/C (endpoint: mean survival time, dose: 200.0 mg/kg/injection, schedule: Q01DX001 (ip), vehicle: Klucel (hydroxypropylcellulose) (HPC)): 91 % of control
- T/C (endpoint: mean survival time, dose: 400.0 mg/kg/injection, schedule: Q01DX001 (ip), vehicle: Klucel (hydroxypropylcellulose) (HPC)): 91 % of control

Structure (SMILES): CCCCP(=O)(O)O
- T/C [1]: 92 % of control
- T/C [2]: 100 % of control

Structure (SMILES): C1=NCCN1
- T/C [15]: 106 % of control
- T/C [4]: 97 % of control
- T/C (endpoint: mean survival time, dose: 200.0 mg/kg/injection, schedule: Q01DX009 (ip), vehicle: saline): 89 % of control
- T/C [5]: 97 % of control
- T/C [6]: 90 % of control

Structure (SMILES): CC(=O)O.[Th]
- T/C [3]: 92 % of control
- T/C [12]: 92 % of control

Structure (SMILES): CN(C)/C=C\C(=O)O
- T/C (endpoint: mean survival time, dose: 100.0 mg/kg/injection, schedule: Q04DX002 (ip), vehicle: saline with Tween-80): 102 % of control
- T/C (endpoint: mean survival time, dose: 200.0 mg/kg/injection, schedule: Q04DX002 (ip), vehicle: saline with Tween-80): 102 % of control
- T/C (endpoint: mean survival time, dose: 400.0 mg/kg/injection, schedule: Q04DX002 (ip), vehicle: saline with Tween-80): 98 % of control

— PubChem BioAssay AID256 (DTP/NCI, 2004)
